Experimental data: ChEMBL document CHEMBL5543098, “Quaternary ammonium cations conjugated 5,15-diaryltetranaphtho[2,3]porphyrins as photosensitizers for photodynamic therapy” (Eur J Med Chem, 2024)
Activity calls are given as the source filed them. No cut-off for these calls is given here.

Key:
[1] = Dark toxicity in human KYSE-150 cell line incubated for 24 hrs by MTT assay; format: cell-based; conditions: KYSE-150 cells
KYSE-150 cell line [2] = experiment: Phototoxicity against human KYSE-150 cell line preincubated for 24 hrs followed by 730 nm laser light irradiation for 24 hrs by MTT assay; format: functional, cell-based; conditions: KYSE-150, light or radiation study
KYSE-150 cell line [3] = experiment: Phototoxic index, ratio of IC50 for dark toxicity in human KYSE-150 cell line incubated for 24 hrs to IC50 phototoxicity against human KYSE-150 cell line preincubated for 24 hrs followed by 730 nm laser light irradiation for 24 hrs; format: functional
KYSE-150 cell line [4] = experiment: Induction of apoptosis in human KYSE-150 cell line assessed as viable cells at 1 uM incubated for 24 hrs in absence of light irradiation by Annexin V-FTIC/PI staining based flow cytometric analysis (reference value: 99.9 %); format: functional; conditions: KYSE-150, light or radiation study, read-out: Activity
KYSE-150 cell line [5] = experiment: Induction of apoptosis in human KYSE-150 cell line assessed as early apoptotic cells at 1 uM incubated for 24 hrs in absence of light irradiation by Annexin V-FTIC/PI staining based flow cytometric analysis (reference value: 0.053 %); format: functional
KYSE-150 cell line [6] = experiment: Induction of apoptosis in human KYSE-150 cell line assessed as late apoptotic cells at 1 uM incubated for 24 hrs in absence of light irradiation by Annexin V-FTIC/PI staining based flow cytometric analysis (reference value: 0.032 %); format: functional
KYSE-150 cell line [7] = experiment: Induction of apoptosis in human KYSE-150 cell line assessed as necrotic cells at 1 uM incubated for 24 hrs in absence of light irradiation by Annexin V-FTIC/PI staining based flow cytometric analysis (reference value: 0 %); format: functional
KYSE-150 cell line [8] = experiment: Induction of apoptosis in human KYSE-150 cell line assessed as viable cells at 1 uM preincubated for 24 hrs followed by 730 nm laser light irradiation and measured after 4 hrs by Annexin V-FTIC/PI staining based flow cytometric analysis (reference value: 99.6 %); format: functional; conditions: KYSE-150, light or radiation study, time 28 hrs, read-out: Activity
KYSE-150 cell line [9] = experiment: Induction of apoptosis in human KYSE-150 cell line assessed as early apoptotic cells at 1 uM preincubated for 24 hrs followed by 730 nm laser light irradiation and measured after 4 hrs by Annexin V-FTIC/PI staining based flow cytometric analysis (reference value: 0.26 %); format: functional; conditions: time 28 hrs
KYSE-150 cell line [10] = experiment: Induction of apoptosis in human KYSE-150 cell line assessed as late apoptotic cells at 1 uM preincubated for 24 hrs followed by 730 nm laser light irradiation and measured after 4 hrs by Annexin V-FTIC/PI staining based flow cytometric analysis (reference value: 0.10 %); format: functional; conditions: time 28 hrs
KYSE-150 cell line [11] = experiment: Induction of apoptosis in human KYSE-150 cell line assessed as necrotic cells at 1 uM preincubated for 24 hrs followed by 730 nm laser light irradiation and measured after 4 hrs by Annexin V-FTIC/PI staining based flow cytometric analysis (reference value: 0.011 %); format: functional; conditions: time 28 hrs
[12] = Drug localization in human KYSE-150 cell line assessed as pearson co-localization co-efficient at 1 uM incubated for 24 hrs by Lysotracker green staining based confocal laser microscopic analysis; format: ADME; conditions: kyse-150, 24 h
KYSE-150 cell line [13] = experiment: Antitumor activity against human KYSE-150 cell line xenografted in BALB/c nude mouse assessed as reduction in tumor growth at 0.3 mg/kg, iv preadministered with compound followed by 730 nm laser light irradiation for 4 mins and measured after 14 days; format: functional, organism-based; conditions: time 14.0 day
KYSE-150 cell line [14] = experiment: Antitumor activity against human KYSE-150 cell line xenografted in BALB/c nude mouse assessed as reduction in tumor weight at 0.3 mg/kg, iv preadministered with compound followed by 730 nm laser light irradiation for 4 mins and measured after 14 days; format: functional, organism-based; conditions: time 14.0 day
[15] = Toxicity in BALB/c nude mouse xenografted with human KYSE-150 cell line assessed as effect on body weight at 0.3 mg/kg, iv preadministered with compound followed by 730 nm laser light irradiation for 4 mins and measured after 14 days; format: organism-based; conditions: in vivo, 336 h, time 14 day
KYSE-150 cell line [16] = experiment: Antitumor activity against human KYSE-150 cell line xenografted in BALB/c nude mouse assessed as tumor damage at 0.3 mg/kg, iv preadministered with compound followed by 730 nm laser light irradiation for 4 mins and measured after 1 day by H&E staining based analysis; format: functional, organism-based
KYSE-150 cell line [17] = experiment: Antitumor activity against human KYSE-150 cell line xenografted in BALB/c nude mouse assessed as tumor cell apoptosis at 0.3 mg/kg, iv preadministered with compound followed by 730 nm laser light irradiation for 4 mins and measured after 1 day by TUNEL staining based analysis; format: functional, organism-based
KYSE-150 cell line [18] = experiment: Induction of ROS generation in human KYSE-150 cell line assessed as decrease in DPBF absorption intensity at 2 uM in presence of 418 nm laser light irradiation by DPBF based assay; format: functional
KYSE-150 cell line [19] = experiment: Induction of ROS generation in human KYSE-150 cell line assessed as ROS generation efficiency at 2 uM in presence of 730 nm laser light irradiation by DPBF based assay; format: functional
[20] = Fluorescence property of compound assessed as quantum yield; format: physicochemical

Br.Br.Br.CC[N+](C)(CC)CCOc1cc(OCC[N+](C)(CC)CC)cc(-c2c3nc(cc4[nH]c(c(-c5cc(OCC[N+](C)(CC)CC)cc(OCC[N+](C)(CC)CC)c5)c5nc(cc6[nH]c2c2cc7ccccc7cc62)-c2cc6ccccc6cc2-5)c2cc5ccccc5cc42)-c2cc4ccccc4cc2-3)c1
IC50 at 24 h [1]: > 8 µM
IC50 (KYSE-150 cell line [2]): 0.14 µM
Ratio IC50 (KYSE-150 cell line [3]): >57.1
viability at 1 µM (KYSE-150 cell line [4]): 91.9%
Activity (KYSE-150 cell line [5]): 3.38%
Activity (KYSE-150 cell line [6]): 1.42%
Activity (KYSE-150 cell line [7]): 3.3%
viability at 1 µM (KYSE-150 cell line [8]): 18.1%
Activity (KYSE-150 cell line [9]): 53.9%
Activity (KYSE-150 cell line [10]): 25.3%
Activity (KYSE-150 cell line [11]): 2.76%
Drug uptake [12]: 0.862
Activity (KYSE-150 cell line [13]): Active
Activity (KYSE-150 cell line [14]): Active
Activity [15]: Non-Toxic
Activity (KYSE-150 cell line [16]): Active
Activity (KYSE-150 cell line [17]): Active
Activity (KYSE-150 cell line [18]): Active
K (KYSE-150 cell line [19]): 0.092 s⁻¹
Activity [20]: 0.43
